Patent EP0913397B1, “A proces for the synthesis of 1-(4-Arylpiperazine-1-y1)-3-(2-oxypyrrolidin/piperidin-1-yl)propanes as therapeutic agents for hypertension, ischemia, cardiovascular and other adrenergic receptors related disorders” (COUNCIL OF SCIENTIFIC AND INDUSTRIAL RESEARCH, priority 1997, dated 1999)

Experiments:
[1] = system: anaesthetized (pentobarbitone sodium 35 mg/kg i.v.) cat; assay: Effect on blood pressure and adrenaline vasopressure response in anaesthetized cat (Table 2); assay type: in vivo
Procedure: Table 2: Effect on blood pressure, heart rate and adrenaline vasopressure response at an anaesthetized (pentobarbitone sodium 35 mg/kg i.v.) cat.
(§1) • (a) Cats (2.6-4.0 kg) of either sex anaesthetized with pentobarbitone sodium ([…] i.v.) and showing basal mean arterial blood pressure below 150 mm (Hg) were categorised as normotensive and above 150 mm Hg as hypertensive. Arterial blood pressure (BP) was recorded from one of the carotid artery through a stathum P23 DC pressure transducer and 7P1 low level DC preamplifier on a Grass Model P7 Polygraph, Signals from 7P 1 preamplifier were used to trigger 7P4 Tachograph preamplifier for recording the heart rate (HR). Right femoral vein and Trachea were cannulated for intravenous injections and artificial ventilation respectively. Control responses to intravenous injection of noradrenaline (2-4 ug); acetyl choline (1-2 ug); histamine (1-2 ug) and isoprenaline (1-2 ug) were taken before and after the administration of test doses of each compounds.

[2] = system: Hypertensive rat model preparation; assay: Effect on blood pressure, heart rate and adrenaline vasopressor response, anaesthetized hypertensive rat model preparation; assay type: in vivo
Procedure: (§2) 2. Effect on blood pressure, heart rate and adrenaline vasopressor response of anaesthetized (pentobarbitone sodium 40 & 60 mg/kg i.p. in cat and rat respectively) normotensive & hypertensive rat & cat model preparations.
as §1

[3] = system: Normotensive cat; assay: Effect on blood pressure, heart rate and adrenaline vasopressor response, anaesthetized normotensive cat; assay type: in vivo; conditions: 10 uMol/kg i.d.
Procedure: as §2, §1

[4] = system: Isolated aortic strip; assay: Isolated aortic strip, endothelin induced contraction
[5] = system: Rat aortic ring preparation; assay: Rat aortic ring preparation, NE induced contraction
[6] = system: Langendorff perfused rat heart preparation; assay: Cardioprotective activity, Langendorff perfused rat heart, prolonged period of ischemic insult
Procedure: Further, in Langendorff perfused rat heart preparation subjected to even up to 90 min. global ischemia, the compound at 0.001 ug/ml conc. given at the time of reperfusion revived normal rhythmic contraction started within 2 min. (Table 1) and incidence of reperfusion induced arrhythmia were abolished. Table 1: Compound administered at the time reperfusion at the dose of 0.001 ug/ml on prolong period (90min.) of ischemic insult.
The rats were killed by decapitation, heart were rapidly excised and placed in ice-cold HEPES tyrode buffer. Then isolated hearts were perfused retrogradely through coronary arteries using the Langendorff technique. The perfusion buffer consisted (in mM) NaCl 137, KCl 5.4, CaCl2 1.8, MgCl 2 1.0, glucose 11.2 and HEPES 3.0. The buffer (pH 7.4) was continuously gassed with oxygen and maintained at 37°C. Coronary flow rate was maintained at 10 ml/min. The heart contracted spontaneously. The perfused heart was allowed to equilibrate for 30 min. before initiation of any insult protocol. The test compounds were given at the time of reperfusion. Some of the compounds were dissolved in ethanol. Final concentration of ethanol in the perfusion buffer was 0.0001% and had no effect of its own on the parameter used. • (a) For brief period of ischemic insult (Hideo et al. Pathophysiology and pathogenesis of stunned myocardium. J. Clin. Invest., 79, 950-961, 1987). Ischemia was initiated by stopping the flow for 16 min. followed by 30 min. reperfusion period. The durations were decided on the initial pilot experiments leading to 50% recovery of function. • (b) For prolong period of ischemic insult (Becker, L.C. & Ambrosio, G. Myocardial consequences of reperfusion Prog. Cardiovas. Dis., 30, 23-44, 1987). Ischemia was initiated by stopping the flow for […] by 30 min. reperfusion.

[7] = system: histamine induced bronchoconstriction; assay: Konzett and Rossler preparation
[8] = system: Isolated Guinea pig ileum preparation; assay: Isolated Guinea pig ileum preparation, antihistaminic activity; conditions: 0.5-5.0 ug/ml
[9] = system: cat; assay: In vivo drug antagonism studies in cat; conditions: 2 uMol dose i.v. in cat
[10] = 0.001 ug/ml given at the time of reperfusion, up to 90 min. global ischemia

SMILES: CCc1ccccc1N1CCN(CCCN2CCCCC2=O)CC1 [Ar=C6H4-2-C2H5, n=2, 1-[4-(Z-ethylphenyll)piperazin-1-yl]-3-[2-oxopiperidin-1-yl]propane]
- B. P. fall % ([1]; 2.0 umol/kg i.v.): 35%
- Dur. ([1]; 2.0 umol/kg i.v.): 55 min
- Adrenaline vasopressure response % inhibition ([1]; 10.0 umol/kg i.v.): R (R=Reversal)
- B. P. fall % ([1]; 10.0 umol/kg i.v.): 20%
- Dur. ([1]; 10.0 umol/kg i.v.): 63 min

SMILES: O=C1CCCCN1CCCN1CCN(c2cccc(C(F)(F)F)c2)CC1 [Ar=C6H4-3-CF3, n=2, 1-[4-(3-trifluoromethylphenyl)piperazin-1-yl]-3-[2-oxopiperidin-1-yl]propane]
- Dur. ([1]; 10.0 umol/kg i.v.): Tr

SMILES: CCc1ccc(N2CCN(CCCN3CCCC3=O)CC2)cc1 [Ar=C6H4-4-C2H5, n=1, 1-[4-(4-ethylphenyl)piperazin-1-yl]-3-[2-oxopyrrolidin-1-yl]propane]
- Dur. ([1]; 2.0 umol/kg i.v.): Tr

SMILES: O=C1CCCN1CCCN1CCN(c2ccc(F)cc2)CC1 [Ar=C6H4-4-F, n=1, 1-[4-(4-fluorophenyl)piperazin-1-yl]-3-[2-oxopyrrolidin-1-yl]propane]
- Heart rate Pre/post treatment (post) ([2]; 5 uMol/kg i.d.): 320 beats/min
- Heart rate Pre/post treatment (post) ([2]; 10 uMol/kg i.d.): 340 beats/min
- Heart rate Pre/post treatment (pre) ([2]; 20 uMol/kg i.d., pre treatment): 310 beats/min
- Heart rate Pre/post treatment (post) ([3]; post treatment): 170 beats/min
- Heart rate Pre/post treatment (pre) ([3]; pre treatment): 200 beats/min
- Endothelin induced contraction [4]: inhibited significantly
- Response to endothelin after washing the preparation ([4]; after washing): relaxation rather than contraction
- NE induced contraction [5]: inhibited
- incidence of reperfusion induced arrhythmia [6, 10]: abolished
- time to start of normal rhythmic contraction [6, 10]: ≤ 2 min
- antihistaminic activity against histamine induced bronchoconstriction [7]: some antihistaminic activity
- antihistaminic activity [8]: significant antihistaminic activity
- reduction of the fall in blood pressure ([9]; glibenclamide pretreatment): only partially reduced
- reduction of antihypertensive effect ([9]; pretreatment with Dup-753): 33%
- alteration of antihypertensive effect ([9]; pretreatment with atropine sulphate): failed to alter
- alteration of antihypertensive effect ([9]; pretreatment with mepyramine maleate): failed to alter
- alteration of antihypertensive effect ([9]; pretreatment with propranolol): failed to alter
- alteration of antihypertensive effect ([9]; pretreatment with yohimbine): failed to alter

SMILES: COC(=O)C1=C(C)NC(C)=C(C(=O)OC)C1c1ccccc1[N+](=O)[O-] [Nifedipine, reference compound]
- Onset ([6]; 10^-6M, ischemic insult 45 min.): 2.5 min
